Laboratory results taken from US4973679A, “Process for oligonucleo tide synthesis using phosphormidite intermediates” (University Patents, Inc., priority 1986, dated 1990).

Assay: Lewis acid (ZnBr2) hydrolysis rates of triarylmethyl groups attached to the 5'-hydroxyl of deoxynucleosides
Assay type: physicochemical
Details: 0.08 M ZnBr2 in nitromethane; tlc, HCl vapors
Protocol: These compounds are listed in Tables IV and V. The 5'-triarylmethyldeoxynucleosides were treated with protic and Lewis acids using carefully controlled conditions. […] The rates are more variable -with protic acids.
The Lewis Acid Hydrolysis Rates of Triarylmethyl Groups
^1 Reaction conditions were 0.08 M ZnBr2 in nitromethane.
Aliquots were removed from the reaction solution, quenched with ammonium
acetate and analyzed visually after tlc and exposure to HCl vapors. Time

`COc1ccccc1C(OC[C@H]1O[C@@H](n2cnc3c(=O)[nH]c(NC(=O)C(C)C)nc32)C[C@@H]1O)(c1ccccc1)c1ccccc1OC` [R1 = R2 = b; R3 = a; G] and `COc1ccc(C(OC[C@H]2O[C@@H](n3cnc4c(=O)[nH]c(NC(=O)C(C)C)nc43)C[C@@H]2O)(c2ccccc2)c2ccc(OC)cc2)cc1` [R1 = R2 = c; R3 = a; G] are the same in “t1/2 in ZnBr2” value: 20 s for the first, 20 s for the second.

`COc1ccccc1C(OC[C@H]1O[C@@H](n2ccc(NC(=O)c3ccccc3)nc2=O)C[C@@H]1O)(c1ccccc1OC)c1cccc2ccccc12` [R1 = R2 = b; R3 = n; C] and `COc1ccccc1C(OC[C@H]1O[C@@H](n2cc(C)c(=O)[nH]c2=O)C[C@@H]1O)(c1ccccc1OC)c1cccc2ccccc12` [R1 = R2 = b; R3 = n; T] are the same in “t1/2 in ZnBr2” value: 30 s for the first, 30 s for the second.

First: COc1ccc(C(OC[C@H]2O[C@@H](n3cnc4c(NC(=O)c5ccccc5)ncnc43)C[C@@H]2O)(c2ccccc2)c2ccc(OC)cc2)cc1 [R1 = R2 = c; R3 = a; A]
Second: COc1ccc(C(OC[C@H]2O[C@@H](n3ccc(NC(=O)c4ccccc4)nc3=O)C[C@@H]2O)(c2ccccc2)c2ccc(OC)cc2)cc1 [R1 = R2 = c; R3 = a; C]
The “t1/2 in ZnBr2” value of the first is lower: 20 s for the first, 45 s for the second.

`COc1ccc(C(OC[C@H]2O[C@@H](n3cc(C)c(=O)[nH]c3=O)C[C@@H]2O)(c2ccccc2)c2ccc(OC)cc2)cc1` [R1 = R2 = c; R3 = a; T] and `COc1ccc(C(OC[C@H]2O[C@@H](n3cc(C)c(=O)[nH]c3=O)C[C@@H]2O)(c2ccccc2)c2cccc3ccccc23)cc1` (stereo partly shown) [R1 = n; R2 = c; R3 = a; T] are the same in “t1/2 in ZnBr2” value: 60 s for the first, 60 s for the second.

Going from `Cc1ccc(C(OC[C@H]2O[C@@H](n3cnc4c(NC(=O)c5ccccc5)ncnc43)C[C@@H]2O)(c2ccccc2)c2ccccc2)cc1` [R1 = h; R2 = R3 = a; A] to `Cc1cn([C@H]2C[C@H](O)[C@@H](COC(c3ccccc3)(c3ccc(F)cc3)c3cccc4ccccc34)O2)c(=O)[nH]c1=O` (stereo partly shown) [R1 = n; R2 = e; R3 = a; T], the “t1/2 in ZnBr2” value rises from 45 s to 60 s.
